Measurements published in PMC6467784 (Journal of medicinal chemistry, 2019).
Where “and” joins values, the source holds several entries; their conditions need not be identical. Equal values may be shown once. Read-outs that look alike come from different tables or passages of the source.

Assays:
hA1AR [1] = biological target: T1, hA1AR (Homo sapiens, UniProt P30542); experiment: hA1AR radioligand binding, CHO cell membranes; settings: for hA1AR selectivity compared to hA3AR: ratio of binding Ki
T1 sequence (P30542 1-326): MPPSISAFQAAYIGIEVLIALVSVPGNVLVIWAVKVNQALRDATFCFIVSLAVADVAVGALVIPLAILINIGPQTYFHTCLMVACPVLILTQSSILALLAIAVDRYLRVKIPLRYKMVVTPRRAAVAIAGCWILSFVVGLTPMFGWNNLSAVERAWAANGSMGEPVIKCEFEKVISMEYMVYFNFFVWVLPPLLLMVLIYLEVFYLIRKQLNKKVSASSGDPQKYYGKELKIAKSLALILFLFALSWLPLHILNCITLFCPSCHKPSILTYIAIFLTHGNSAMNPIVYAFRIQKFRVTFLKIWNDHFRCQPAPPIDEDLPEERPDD

wild-type C57BL/6J mice [2] = experiment: Body temperature and locomotor activity by telemetry after ip. dosing; assay type: in vivo, mouse; settings: for Effect on Tb in WT mice: ip., up to 3 or 10 mg/kg
wild-type C57BL/6J mice [3] = settings: average from dosing to 60 min, ref [30], cited from earlier work
A1AR, A3AR [4] = settings: ref [30]; cited from earlier work
anesthetized rat = experiment: Cardiovascular effects in the anesthetized rat; assay type: in vivo; settings: 0.02 mg/kg, iv., preliminary
mA1AR = biological target: T2, mA1AR (Mus musculus, UniProt Q60612); experiment: mA1AR radioligand binding; settings: ratio of binding Ki
T2 sequence (Q60612 1-326): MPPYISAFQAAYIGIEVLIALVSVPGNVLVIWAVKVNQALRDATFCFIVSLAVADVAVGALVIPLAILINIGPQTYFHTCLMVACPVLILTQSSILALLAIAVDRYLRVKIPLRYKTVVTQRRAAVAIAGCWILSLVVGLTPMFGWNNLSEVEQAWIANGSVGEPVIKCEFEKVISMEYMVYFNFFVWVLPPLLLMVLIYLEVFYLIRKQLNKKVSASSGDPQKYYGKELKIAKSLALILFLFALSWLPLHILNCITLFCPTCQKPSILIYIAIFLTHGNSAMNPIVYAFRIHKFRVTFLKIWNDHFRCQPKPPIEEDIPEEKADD

[5] = tested on: off-target receptors and transporters; experiment: PDSP off-target screen; assay type: binding, human
hA2BAR = biological target: T3, hA2BAR (Homo sapiens, UniProt P29275); experiment: hA2BAR radioligand binding using [3H]54; settings: read-out: hA2BAR % binding inhibition at 10 μM
T3 sequence (P29275 1-332): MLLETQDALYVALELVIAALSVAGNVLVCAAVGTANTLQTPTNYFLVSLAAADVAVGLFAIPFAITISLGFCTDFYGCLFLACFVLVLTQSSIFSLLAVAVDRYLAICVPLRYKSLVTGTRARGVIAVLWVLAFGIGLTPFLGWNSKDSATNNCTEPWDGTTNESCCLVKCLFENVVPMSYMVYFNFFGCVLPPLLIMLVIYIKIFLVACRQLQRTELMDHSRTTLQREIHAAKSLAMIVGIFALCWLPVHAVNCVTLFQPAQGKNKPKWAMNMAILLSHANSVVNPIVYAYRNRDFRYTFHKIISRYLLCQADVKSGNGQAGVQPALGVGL

hA1AR [6] = biological target: T1, hA1AR; settings: human (h); at 10 μM; ref [33],[34]; cited from earlier work
mice = experiment: Hypothermia after intracerebroventricular infusion; assay type: in vivo, mouse
A1AR, A3AR [7] = experiment: Hypothermia in A1AR, A3AR and A1AR/A3AR deficient mice; assay type: in vivo, mouse; settings: 3 mg/kg ip.
bovine A1AR = settings: read-out: Ki at bovine A1AR; ref [36],[37]; cited from earlier work

OC[C@H]1O[C@@H](n2cnc3c(NC(C4CCC4)C4CCC4)nc(Cl)nc32)[C@H](O)C1O (stereo in doubt) [Compound 12, (2R,3R,4R,5R)-2-(2-Chloro-6-((dicyclobutylmethyl)amino)-9H-purin-9-yl)-5-(hydroxymethyl)tetrahydrofuran-3,4-diol]
hA1AR affinity relative to 9 (hA1AR [1]; lower affinity than 9): 8 fold
hA1AR selectivity compared to hA3AR (hA1AR [1]): 742 fold
Tb (wild-type C57BL/6J mice [2]; 3 mg/kg ip., average from dosing to 60 min, mean ±SD): 35.5±0.8 °C

OC[C@H]1O[C@@H](n2cnc3c(NC4CCCC4)ncnc32)[C@H](O)[C@@H]1O [Compound 1a]
Tb (wild-type C57BL/6J mice [3]; 1 mg/kg ip.): 32.4±0.5 °C
ARs causing hypothermia (A1AR, A3AR [4]): A3AR > A1AR[30]

OC[C@H]1O[C@@H](n2cnc3c(NC4CCCC4)nc(Cl)nc32)[C@H](O)[C@@H]1O [Compound 2]
Effect on blood pressure (anesthetized rat): sustained rise in blood pressure

O[C@@H]1[C@H](O)[C@@H](CCl)O[C@H]1n1cnc2c(NC3C[C@H]4CC[C@@H]3C4)ncnc21 (stereo partly drawn) [Compound 4]
Tb (wild-type C57BL/6J mice [3]; 3 mg/kg ip.): 32.2±1.3 °C
ARs causing hypothermia (A1AR, A3AR [4]): A1AR > A3AR[30]

O[C@@H]1[C@H](O)[C@@H](CCl)O[C@H]1n1cnc2c(NC(C3CCC3)C3CCC3)ncnc21 [Compound 10, (2S,3S,4R,5R)-2-(Chloromethyl)-5-(6-((dicyclobutylmethyl)amino)-9H-purin-9-yl)tetrahydrofuran-3,4-diol]
hA1AR selectivity compared to hA3AR (hA1AR [1]): 3390 fold
mA1AR selectivity compared to mA3AR (mA1AR): 2970 fold and > 2000 fold

CNC(=O)[C@H]1O[C@@H](n2cnc3c(N)ncnc32)[C@H](O)[C@@H]1O [Compound 15, reference compound]
Off-target, receptor: interactions found [5]: none

CCNC(=O)[C@H]1O[C@@H](n2cnc3c(N)ncnc32)[C@H](O)[C@@H]1O [Compound 16, reference compound]
Off-target, receptor: interactions found [5]: none

O[C@@H]1[C@H](O)[C@@H]2C[C@@H]2[C@H]1n1cnc2c(NC(C3CCC3)C3CCC3)nc(Cl)nc21 [Compound 19]
inhibition at 10 µM (hA2BAR): 24%

O[C@@H]1[C@H](O)[C@@H]2C[C@@H]2[C@H]1n1cnc2c(NC(C3CCCC3)C3CCCC3)nc(Cl)nc21 [Compound 20]
A1AR % inhibition (hA1AR [6]): 34±3% (h)

Nc1nc(Cl)nc2c1ncn2[C@H]1[C@H](O)[C@H](O)[C@]2(CCl)C[C@H]12 [Compound 22]
hA1AR affinity relative to 21 (hA1AR [1]; higher affinity than parent 21): 14 fold

OC[C@@]12C[C@@H]1[C@@H](n1cnc3c(NC(C4CCC4)C4CCC4)ncnc31)[C@H](O)[C@@H]2O [Compound 24, (1R,2R,3S,4R,5S)-4-(6-((Dicyclobutylmethyl)amino)-9H-purin-9-yl)-1-(hydroxymethyl)bicyclo[3.1.0]hexane-2,3-diol]
A1AR selectivity (hA1AR [1]; abstract, species and comparator not stated): ~ 400 fold
Effect on Tb after icv. administration (mice; 1.67 μg/mouse icv. (= […])): reduced Tb only slightly
Tb reached after icv. administration (mice; 5 μg injected icv. (equivalent to […])): ~ 24 °C

O[C@H]1[C@H](n2cnc3c(NC(C4CCC4)C4CCC4)ncnc32)[C@H]2C[C@@]2(CCl)[C@H]1O [Compound 26, (1S,2R,3S,4R,5S)-1-(Chloromethyl)-4-(6-((dicyclobutylmethyl)amino)-9H-purin-9-yl)bicyclo[3.1.0]hexane-2,3-diol]
hA1AR selectivity compared to hA3AR (hA1AR [1]): ~ 300 fold
mA1AR selectivity compared to mA3AR (mA1AR): 890 fold

OC[C@@]12C[C@@H]1[C@@H](n1cnc3c(N[C@H]4C[C@H]5CC[C@@H]4C5)nc(Cl)nc31)[C@H](O)[C@@H]2O [Compound 29, (1R,2R,3S,4R,5S)-4-(6-(((1R,2S,4S)-Bicyclo[2.2.1]heptan-2-yl)amino)-2-chloro-9H-purin-9-yl)-1-(hydroxymethyl)bicyclo[3.1.0]hexane-2,3-diol]
Receptor dependence of hypothermia (A1AR, A3AR [7]; A1AR KO, A3AR KO, double KO mice): via both central A1AR and peripheral A3AR
ARs causing hypothermia (A1AR, A3AR [7]; WT vs AR-KO mice (Figure 2)): A3AR > A1AR (Figure 2)
hA1AR selectivity compared to hA3AR (hA1AR [1]): 12 fold
Effect on Tb in WT mice (wild-type C57BL/6J mice [2]): hypothermic effect

OC[C@@]12C[C@@H]1[C@@H](n1cnc3c(N[C@H]4C[C@H]5CC[C@@H]4C5)nc(Cl)cc31)[C@H](O)[C@@H]2O [Compound 30]
Off-target, receptor: interactions found [5]: none

O[C@H]1[C@H](n2cnc3c(N[C@H]4C[C@H]5CC[C@@H]4C5)nc(Cl)nc32)[C@H]2C[C@@]2(CCl)[C@H]1O [Compound 31, (1S,2R,3S,4R,5S)-4-(6-(((1R,2S,4S)-Bicyclo[2.2.1]heptan-2-yl)amino)-2-chloro-9H-purin-9-yl)-1-(chloromethyl)bicyclo[3.1.0]hexane-2,3-diol]
hA1AR selectivity compared to hA3AR (hA1AR [1]): 10 fold
Effect on Tb in WT mice (wild-type C57BL/6J mice [2]): did not significantly induce hypothermia
Off-target, receptor: interactions found [5]: none

CCOC(=O)[C@@]12C[C@@H]1[C@@H](n1cnc3c(NC(C4CCC4)C4CCC4)nc(Cl)nc31)[C@H](O)[C@@H]2O [Compound 35]
inhibition at 10 µM (hA2BAR): 38%

NC(=O)c1ncn([C@@H]2O[C@H](CO)[C@@H](O)[C@H]2O)n1 [Compound 38, ribavirin, reference compound]
Ki (bovine A1AR): 86 µM
inhibition at 10 µM (hA2BAR): 39%

NC(=O)c1ncn([C@H]2[C@H](O)[C@H](O)[C@]3(CO)C[C@H]23)n1 [Compound 40]
hA1AR affinity relative to 38 (hA1AR [1]; greater affinity than riboside 38): 15 fold
mA1AR selectivity compared to mA3AR (mA1AR): 25.2 nM (~400) fold
